Consider seven molecules from patent US9198420B2, “Rodenticidal norbormide analogues” (priority 2012, dated 2015).

Structures are written as SMILES. Marks after values point to notes of the source that are not given here.

Data set [1] relates to Sprague Dawley rats. Description: In vivo lethality, intravenous injection via the tail. More on the design: species or system rat (Sprague Dawley). As to conditions: rat. As for the experimental part: Sprague Dawley rats (150-200 g) were used to appraise the rodenticidal activity of the compounds put forward for in vivo evaluation. Briefly, prior to administration the compounds were dissolved in 0.2 M hydrochloric acid (5% DMSO overall), to the desired dose, and without delay either injected intravenously, via the tail, or orally gavaged. All treated animals were housed in a quiet room and monitored every minute (i.v) or every 15 min (oral) to verify early signs of toxicity.

Data set [2] can be described thus: Rat serum assay (release of NRB or NRB analogue). The data set is classed as in vitro ADME. Conditions: 80% rat serum, 37° C., 3 h, n = 3. As for the experimental part: The hydrolytic stability of compounds of the invention in rat blood was evaluated using in vitro rat serum obtained from Sigma-Aldrich and stored at −78° C. Similar assay conditions to those reported by Li Di and co-workers (Int. J. Pharm. 2005, 297, 110-119) were followed [200 μL total volume, 80% rat serum (diluting with phosphate buffer (0.1 M, pH 7.4)), at a final compound concentration of 200 μM, 2.5% DMSO overall, 37° C., 3 h, n=3] using an Eppendorf Thermomixer Compact. Reactions were quenched by transferring 150 μL of the incubation mixture to 450 μL of ice-cold acetonitrile, affording a final compound/NRB or NRB analogue concentration of 50 μM. Samples were centrifuged at 14,500×g for 15 min using an Eppendorf Mini Spin Plus centrifuge, at ambient temperature. 400 μL of the supernatant was removed and transferred to clean tubes. Analysis was by RP-LCMS at an injection volume of 20 μL. Each compound and corresponding NRB or NRB analogue were subjected to external calibration curves at 50 μM, 100 μM and 200 μM to allow conversion of absorbance unit area into nmol, from which the percentage of NRB or NRB analogue released from each compound was calculated.

Data set [3] in a line: Rat liver S9 fraction assay (release of NRB or NRB analogue). Conditions: 1 mg/mL rat liver S9 fraction, 37° C., 6 h, n = 3. The data set is classed as in vitro ADME, rat (male Sprague-Dawley). Here is the method:
The hydrolytic stability of compounds of the invention was also evaluated in vitro using rat liver S9 fraction (20 mg/mL), pooled from male rat (Sprague-Dawley), obtained from Sigma-Aldrich, diluted to 1 mg/mL with phosphate buffer (0.1 M, pH 7.4) and stored at −78° C. Similar assay conditions to those reported by Li Di and co-workers (Int. J. Pharm. 2005, 297, 110-119) were followed [200 μL total volume, 1 mg/mL rat liver S9 fraction (diluting with phosphate buffer (0.1 M, pH 7.4)), at a final compound concentration of 200 μM, 2.5% DMSO overall, 37° C., 6 h, n=3]. The assay protocol followed is as that described above for the rat serum assay, with an adjusted end-point of 6 h.

A short description of data set [4]: Simulated gastric fluid (SGF) hydrolytic stability assay. The data set is classed as physicochemical. Conditions: simulated gastric fluid without pepsin, pH 1.2, 37° C., 1 h, n = 3; for % NRB released, Hydrolytic Stability (simulated gastric fluid): footnote c: compounds not exhibiting vasoconstriction. Here is the method: All in vivo candidates were subjected to a 1 h hydrolytic stability appraisal in the presence of SGF, without pepsin (United States Pharmacopoeia 24) [200 μL total volume, sodium chloride solution (0.03 M) acidified to pH 1.2 with concentrated hydrochloric acid, at a final compound concentration of 200 μM, 2.5% DMSO overall, 37° C., n=3], to investigate any potential chemical instabilities that may occur in the acidic environment of the stomach prior to uptake. Analysis was by RP-LCMS at an injection volume of 5 μL.

Data set [5] concerns rat caudal artery. In words: Rat caudal artery ring contractile force (vasoconstrictory activity). More on the design: species or system rat (male Wistar). Conditions: for Emax: Table 1, read-out: Vasoconstriction: maximum contractile effect as a % of 90 mM KCl contraction. The procedure, abridged:
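Endothelium-denuded caudal artery rings from male Wistar rats were held at 2 g resting tension in Tyrode solution (37° C, pH 7.35, 95% O2/CO2) and isometric force was recorded. Compounds were tested at 50 μM, with contraction expressed as percent of the 90 mM KCl response.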

The subject of data set [6] is Sprague Dawley rats. Description: In vivo lethality, oral gavage. Also on record: species or system rat (Sprague Dawley). Conditions: rat; for In vivo lethality (oral): n = 2; for Time to Death (min) / Onset of Symptoms: mean time; for Onset of Symptoms: visual signs of distress consistent with NRB-like symptoms. The procedure, abridged: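 Sprague Dawley rats (150-200 g) received compound dissolved in 0.2 M HCl (5% DMSO overall) at the desired dose, by oral gavage or tail-vein i.v. injection. Animals were watched for early toxicity signs every minute (i.v.) or every 15 min (oral).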

Data set [7] relates to Sprague Dawley rats. In words: Palatability (choice) trial, peanut butter bait. The data set is classed as in vivo, rat (Sprague Dawley). As to conditions: 2 days.
The subject of data set [8] is Sprague Dawley rats. Description: Palatability (no-choice) trial, peanut butter bait. The data set is classed as in vivo, rat (Sprague Dawley). Conditions: 1% w/w toxicant in peanut butter bait. From the text:
In the palatability trials, Sprague Dawley rats (ca. 250 g) were presented with 1% w/w compound (n=6) or 0.5% w/w compound (n=5) in a peanut butter bait, following 3 days ‘pre-baiting’ with a peanut butter formulation free of toxicant.

[9] abbreviates: Table 5, compounds of formula (III).
[10] abbreviates: choice of EPA diet (20 g) and bait with 1% w/w toxicant (20 g), n = 12, Table 14.
Where [11] appears, read: choice of standard lab pellets (20 g) and bait with 1% w/w toxicant (20 g), n = 12, Table 13.

For the molecule `O=C(CCC(=O)OCCN1C(=O)C2C3C=C(C(O)(c4ccccc4)c4ccccn4)C(C3=C(c3ccccc3)c3ccccn3)C2C1=O)OCCOC(=O)CCC(=O)OCCN1C(=O)C2C3C=C(C(O)(c4ccccc4)c4ccccn4)C(C3=C(c3ccccc3)c3ccccn3)C2C1=O` (stereo not drawn) [Compound 144, N-[2′-Ethylenebis(hydrogensuccinoyloxy)ethyl]-5-(α-hydroxy-α-2-pyridylbenzyl)-7-(α-2-pyridylbenzylidene)-5-norbornene-2,3-dicarboximide dimer], in data set [1] (10 mg/Kg, n = 2, Table 6), the “In vivo lethality (i.v.)” value is “no^f”. Besides, in data set [2], the “% NRB released, Rat Serum” value stood at 14.5 ± 0.8%. Also, the “% NRB released, Rat Liver S9” value in data set [3] is recorded as below 5%. Also, the “% NRB released, Hydrolytic Stability” value in data set [4] was 0%. Also, the “Vasoconstriction: maximum contractile effect as a % of 90 mM KCl contraction” value is reported as 0% in data set [5] (setting [9]) and 0% in data set [5] (n = 3, pre-cleavage, Table 6).
Turning to `O=C(CCCCCCCCC(=O)OCCN1C(=O)C2C3C=C(C(O)(c4ccccc4)c4ccccn4)C(C3=C(c3ccccc3)c3ccccn3)C2C1=O)OCCN1C(=O)C2C3C=C(C(O)(c4ccccc4)c4ccccn4)C(C3=C(c3ccccc3)c3ccccn3)C2C1=O` (stereo not drawn) [Compound 141, 5-(α-Hydroxy-α-2-pyridylbenzyl)-7-(α-2-pyridylbenzylidene)-N-2′-sebacoyloxyethyl-5-norbornene-2,3-dicarboximide dimer], the “In vivo lethality (i.v.)” value in data set [1] (10 mg/Kg, n = 2, Table 6) is reported as “no^f”. The “% NRB released, Rat Serum” value in data set [2] was below 5%. Besides, the “% NRB released, Rat Liver S9” value in data set [3] is reported as below 5%. Also, the “% NRB released, Hydrolytic Stability” value in data set [4] is reported as 0%. Moreover, the “Vasoconstriction: maximum contractile effect as a % of 90 mM KCl contraction” value in data set [5] (setting [9]) amounted to 0%; in data set [5] (n = 3, pre-cleavage, Table 6), 0%.
For `O=C(OCCN1C(=O)C2C3C=C(C(O)(c4ccccc4)c4ccccn4)C(C3=C(c3ccccc3)c3ccccn3)C2C1=O)c1ccc2ccccc2c1` (stereo not drawn) [Compound 122, 5-(α-Hydroxy-α-2-pyridylbenzyl)-N-[2′-(2″-naphthoyloxy)ethyl]-7-(α-2-pyridylbenzylidene)-5-norbornene-2,3-dicarboximide], the “In vivo lethality (i.v.)” value in data set [1] (20 mg/Kg, n = 2) is listed as “yes^f”. Besides, the “% NRB released, Rat Serum” value in data set [2] worked out at 14.4 ± 3.0%. Besides, the “In vivo lethality (oral)” value in data set [6] (20 mg/Kg) and in data set [6] (40 mg/Kg) was “yes^h,i” each time. Moreover, in data set [3], the “% NRB released, Rat Liver S9” value is 14.1 ± 0.5%. Also, the “% NRB released, Hydrolytic Stability (simulated gastric fluid)” value in data set [4] is reported as 0^c %. Further, the “Vasoconstriction: maximum contractile effect as a % of 90 mM KCl contraction” value stood at 0% in data set [5] (Table 1, compound at 50 μM) and 0% in data set [5] (Table 4, pre-cleavage, n = 3).
On to `COc1ccc(C=CC(=O)OCCN2C(=O)C3C4C=C(C(O)(c5ccccc5)c5ccccn5)C(C4=C(c4ccccc4)c4ccccn4)C3C2=O)cc1` (stereo not drawn) [Compound 126, 5-(α-Hydroxy-α-2-pyridylbenzyl)-N-[2′-(4″-methoxycinnamoyloxy)ethyl]-7-(α-2-pyridylbenzylidene)-5-norbornene-2,3-dicarboximide], for which the No of deaths in data set [7] (setting [10]) is on record as 8/11^b; in data set [7] (setting [11]), 10/12. For the same molecule, the “In vivo lethality (i.v.)” value in data set [1] (20 mg/Kg, n = 2) was “yes^f”. For the same molecule, in data set [6] (20 mg/Kg), the “Time to Death (min)” value was 50^d min. The “Onset of Symptoms” value in data set [6] (20 mg/Kg) is given as 25 min. The “In vivo lethality (oral)” value in data set [6] (20 mg/Kg) and in data set [6] (40 mg/Kg) was “yes^h,i” in each case. Besides, the Emax in data set [5] amounted to 0%. Also, the “Vasoconstriction: maximum contractile effect as a % of 90 mM KCl contraction” value in data set [5] (Table 4, pre-cleavage, n = 3) is recorded as 0%. The mortality at 1 % in data set [8] (po, n = 6, male rats only, Table 10, read-out: No of deaths (converted)) is 83.3%.
On to `O=C(C=Cc1ccccc1)OCN1C(=O)C2C3C=C(C(O)(c4ccccc4)c4ccccn4)C(C3=C(c3ccccc3)c3ccccn3)C2C1=O` (stereo not drawn) [Compound 19, N-Cinnamoyloxymethyl-5-(α-hydroxy-α-2-pyridylbenzyl)-7-(α-2-pyridylbenzylidene)-5-norbornene-2,3-dicarboximide], for which the No of deaths is given as 1/12 in data set [7] (setting [10]); 2/12 in data set [7] (setting [11]); 5/5^b in data set [8] (n = 6, male rats only, Table 10). Moreover, the “In vivo lethality (i.v.)” value in data set [1] (20 mg/Kg, n = 2) is on record as “yes^f”. For the same molecule, in data set [6] (20 mg/Kg), the “Time to Death (min)” value was 90^d min. Further, the “Onset of Symptoms” value in data set [6] (20 mg/Kg) was found to be 20 min. Further, the “In vivo lethality (oral)” value in data set [6] (20 mg/Kg) and in data set [6] (40 mg/Kg) was “yes^h,i” throughout. Also, the Emax in data set [5] worked out at 0%. Also, the “Vasoconstriction: maximum contractile effect as a % of 90 mM KCl contraction” value in data set [5] (Table 4, pre-cleavage, n = 3) worked out at 0%.
For the molecule `CC(=Cc1ccccc1)C(=O)OCCN1C(=O)C2C3C=C(C(O)(c4ccccc4)c4ccccn4)C(C3=C(c3ccccc3)c3ccccn3)C2C1=O` (stereo not drawn) [Compound 121, 5-(α-Hydroxy-α-2-pyridylbenzyl)-N-2′-α-methylcinnamoyloxyethyl-7-(α-2-pyridylbenzylidene)-5-norbornene-2,3-dicarboximide], the No of deaths is 3/12 in data set [7] (choice of EPA diet (20 g) and bait with 1% w/w toxicant (20 g), n = 2, Table 15); 6/6 in data set [8] (n = 6, 3 male and 3 female rats, Table 11). Further, the “% NRB released, Rat Serum” value in data set [2] was determined as 19.1 ± 1.3%. For the same molecule, in data set [6] (20 mg/Kg), the “Time to Death (min)” value is reported as “not lethal”. Besides, the “Onset of Symptoms” value in data set [6] (20 mg/Kg) came to 20 min. Further, in data set [4], the “% NRB released, Hydrolytic Stability (simulated gastric fluid)” value is given as 0^c %. Further, the “Vasoconstriction: maximum contractile effect as a % of 90 mM KCl contraction” value is listed as 0% in data set [5] (Table 1, compound at 50 μM) and 0% in data set [5] (Table 4, pre-cleavage, n = 3).
As for `O=C(CCCCCCCCC(=O)OCN1C(=O)C2C3C=C(C(O)(c4ccccc4)c4ccccn4)C(C3=C(c3ccccc3)c3ccccn3)C2C1=O)OCN1C(=O)C2C3C=C(C(O)(c4ccccc4)c4ccccn4)C(C3=C(c3ccccc3)c3ccccn3)C2C1=O` (stereo not drawn) [Compound 24, 5-(α-Hydroxy-α-2-pyridylbenzyl)-7-(α-2-pyridylbenzylidene)-N-sebacoyloxymethyl-5-norbornene-2,3-dicarboximide dimer], the “In vivo lethality (i.v.)” value in data set [1] (20 mg/Kg, n = 2, Table 6) was “no^e”. The “% NRB released, Rat Serum” value in data set [2] is reported as 8.6 ± 0.5%. In data set [3], the “% NRB released, Rat Liver S9” value amounted to 6.2 ± 0.2%. Besides, the “% NRB released, Hydrolytic Stability” value in data set [4] was 0%. Besides, the “Vasoconstriction: maximum contractile effect as a % of 90 mM KCl contraction” value in data set [5] (setting [9]) came out at 0%; in data set [5] (n = 3, pre-cleavage, Table 6), 0%.
